Data from patent US10125135B2, “Chemical compounds” (AstraZeneca AB, priority 2016, dated 2018).

Target: ERα receptor in MCF-7 human ductal carcinoma breast cell line (Homo sapiens (Human), UniProt P03372)
Assay: MCF-7 ER down regulation assay (immuno-fluorescence)
Assay type: cell-based
Conditions: MCF-7 cells; for DC50: 18-22 hours incubation, read-out: ER down regulation IC50 value; for % downregulation (in brackets) in ER down regulation assay: >90% unless otherwise stated
Procedure: MCF-7 ER Down Regulation Assay
The ability of compounds to down-regulate Estrogen Receptor (ER) numbers was assessed in a cell based immuno-fluorescence assay using the MCF-7 human ductal carcinoma breast cell line. MCF-7 cells were revived directly from a cryovial (approx 5×10^6 cells) in Assay Medium (phenol red free Dulbecco's Modified Eagle's medium (DMEM) (Sigma D5921) containing 2mM L-Glutamine and 5% (v/v) Charcoal/Dextran treated foetal calf serum. Cells were syringed once using a sterile 18 G×1.5 inch (1.2×40 mm) broad gauge needle and cell density was measured using a Coulter Counter (Beckman). Cells were further diluted in Assay Medium to a density of 3.75×10^4 cells per mL and 40 μL per well added to transparent bottomed, black, tissue culture treated 384 well plates (Costar, No. 3712) using a Thermo Scientific Matrix WellMate or Thermo Multidrop. Following cell seeding, plates were incubated overnight at 37° C., 5% CO2 (Liconic carousel incubator). Test data was generated using the LabCyte Echo™ model 555 compound reformatter which is part of an automated workcell (Integrated Echo 2 workcell). 10 mM compound stock solutions of the test compounds were used to generate a 384 well compound dosing plate (Labcyte P-05525-CV1). […] 40 μΛ of DMSO added to wells in row P on the source plate allow for DMSO normalisation across the dose range. To dose the control wells 40 μL of DMSO was added to row O1 and 40 μL of 100 μM fulvestrant in DMSO was added to row O3 on the compound source plate. […] Compounds were dispensed onto the cell plates with a compound source plate prepared as above producing a 12 pt duplicate 3 μM to 3 pM dose range with 3 fold dilutions and one final 10 fold dilution using the Integrated Echo 2 workcell. […] Cells were fixed at room temperature for 20 mins before being washed two times with 250 μL PBS/Proclin (PBS with a Biocide preservative) using a BioTek platewasher, 40 μL of PBS/Proclin was then added to all wells and the plates stored at 4° C. The fixing method described above was carried out on the Integrated Echo 2 workcell. Immunostaining was performed using an automated AutoElisa workcell. The PBS/Proclin was aspirated from all wells and the cells permeabilised with 40 μL PBS containing 0.5% Tween™ 20 (v/v) for 1 hour at room temperature. The plates were washed three times in 250 μL of PBS/0.05% (v/v) Tween 20 with Proclin (PBST with a Biocide preservative) and then 20 μL of ERα (SP1) Rabbit monoclonal antibody (Thermofisher) 1:1000 in PBS/Tween™/3% (w/v) Bovine Serum Albumin was added. The plates were incubated overnight at 4° C. (Liconic carousel incubator) and then washed three times in 250 μL of PBS/0.05% (v/v) Tween™ 20 with Proclin (PBST). The plates were then incubated with 20 μL/well of a goat anti-rabbit IgG AlexaFluor 594 or goat anti-rabbit AlexaFluor 488 antibody (Molecular Probes) with Hoechst at 1:5000 in PBS/Tween™/3% (w/v) Bovine Serum Albumin for lhour at room temperature. The plates were then washed three times in 250 μL of PBS/0.05% (v/v) Tween™ 20 with Proclin (PBST with a Biocide preservative). 20 μL of PBS was added to each well and the plates covered with a black plate seal and stored at 4° C. before being read. Plates were read using a Cellomics Arrayscan reading the 594 nm (24 hr time point) or 488 nm (5 hr timepoint) fluorescence to measure the ERα receptor level in each well. The mean total intensity was normalized for cell number giving the total intensity per cell.

Sequence of ERα receptor in MCF-7 human ductal carcinoma breast cell line (P03372 whole entry): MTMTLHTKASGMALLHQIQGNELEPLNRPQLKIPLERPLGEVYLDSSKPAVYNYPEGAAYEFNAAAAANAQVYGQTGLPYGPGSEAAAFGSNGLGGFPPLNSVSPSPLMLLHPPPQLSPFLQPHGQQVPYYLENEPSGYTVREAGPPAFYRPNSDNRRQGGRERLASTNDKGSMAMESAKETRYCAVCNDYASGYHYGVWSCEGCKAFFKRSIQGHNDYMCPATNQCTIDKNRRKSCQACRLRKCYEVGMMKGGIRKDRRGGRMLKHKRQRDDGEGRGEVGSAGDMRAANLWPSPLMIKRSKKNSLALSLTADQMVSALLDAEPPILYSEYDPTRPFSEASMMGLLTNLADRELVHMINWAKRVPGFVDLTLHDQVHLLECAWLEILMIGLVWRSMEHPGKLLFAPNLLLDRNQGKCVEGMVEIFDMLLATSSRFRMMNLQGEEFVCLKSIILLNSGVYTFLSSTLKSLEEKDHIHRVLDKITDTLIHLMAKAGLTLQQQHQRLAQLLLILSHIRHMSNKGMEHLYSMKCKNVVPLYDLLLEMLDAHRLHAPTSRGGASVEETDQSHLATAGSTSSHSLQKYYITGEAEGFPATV

Row | SMILES | DC50 | % downregulation (in brackets) in ER down regulation assay
1 | C[C@@H]1Cc2c(ccc3[nH]ncc23)[C@@H](c2ccc(OCCN3CC(CF)C3)cn2)N1CC(C)(F)F [Example 41, (6S,8R)-7-(2,2-difluoropropyl)-6-(5-(2-(3-(fluoromethyl)azetidin-1-yl)ethoxy)pyridin-2-yl)-8-methyl-6,7,8,9-tetrahydro-3H-pyrazolo[4,3-f]isoquinoline] | 0.29 nM | –
2 | COCC(C)(F)CN1[C@H](c2ccc(OCCN3CC(CF)C3)cc2OC)c2ccc3[nH]ncc3c2C[C@H]1C (single isomer, unassigned) [Example 17] | 0.24 nM | –
3 | CC(C)CN1C(c2c(F)cc(OCCN3CC(CF)C3)cc2F)c2ccc3[nH]ncc3c2CC1(C)C (stereo not shown) [Example 36, 6-(2,6-difluoro-4-(2-(3-(fluoromethyl)azetidin-1-yl)ethoxy)phenyl)-7-isobutyl-8,8-dimethyl-6,7,8,9-tetrahydro-3H-pyrazolo[4,3-f]isoquinoline] | 0.25 nM | –
4 | COCC(C)(F)CN1[C@H](c2ccc(OCCN3CC(CF)C3)cc2OC)c2ccc3[nH]ncc3c2C[C@H]1C (single isomer, unassigned) [Example 16] | 0.44 nM | 56%
5 | CC1(C)Cc2c(ccc3[nH]ncc23)C(c2ccc(OCCN3CC(CF)C3)cn2)N1CC(F)F (stereo not shown) [Example 45, 7-(2,2-difluoroethyl)-6-(5-(2-(3-(fluoromethyl)azetidin-1-yl)ethoxy)pyridin-2-yl)-8,8-dimethyl-6,7,8,9-tetrahydro-3H-pyrazolo[4,3-f]isoquinoline] | 3.1 nM | –
6 | COc1cc(OCCN2CC(CF)C2)ncc1[C@@H]1c2ccc3[nH]ncc3c2C[C@@H](C)N1CC1(F)CC1 [Example 42, (6S,8R)-7-((1-fluorocyclopropyl)methyl)-6-(6-(2-(3-(fluoromethyl)azetidin-1-yl)ethoxy)-4-methoxypyridin-3-yl)-8-methyl-6,7,8,9-tetrahydro-3H-pyrazolo[4,3-f]isoquinoline] | 0.59 nM | –
7 | C[C@@H]1Cc2c(ccc3[nH]ncc23)[C@@H](c2ncc(OCCN3CC(CF)C3)cc2F)N1CC(F)F [Example 48, (6S,8R)-7-(2,2-difluoroethyl)-6-(3-fluoro-5-(2-(3-(fluoromethyl)azetidin-1-yl)ethoxy)pyridin-2-yl)-8-methyl-6,7,8,9-tetrahydro-3H-pyrazolo[4,3-f]isoquinoline] | 1.9 nM | –
8 | C[C@@H]1Cc2c(ccc3[nH]ncc23)[C@@H](c2c(F)cc(OCCN3CC(CF)C3)cc2F)N1CC(F)CF (single isomer, unassigned) [Example 34] | 0.28 nM | –
9 | C[C@@H]1Cc2c(ccc3[nH]ncc23)[C@@H](c2c(F)cc(OCCN3CC(CF)C3)cc2F)N1CC(F)CF (single isomer, unassigned) [Example 35] | 0.26 nM | –
10 | C[C@@H]1Cc2c(ccc3[nH]nc(F)c23)[C@@H](c2c(F)cc(OCCN3CC(CF)C3)cc2F)N1CC1(F)COC1 [Example 43, (6S,8R)-6-(2,6-difluoro-4-(2-(3-(fluoromethyl)azetidin-1-yl)ethoxy)phenyl)-1-fluoro-7-((3-fluorooxetan-3-yl)methyl)-8-methyl-6,7,8,9-tetrahydro-3H-pyrazolo[4,3-f]isoquinoline] | 0.59 nM | –
11 | COc1cc(OCCN2CC(C)C2)ccc1[C@@H]1c2ccc3[nH]ncc3c2C[C@@H](C)N1CC(C)(C)F [Example 23, (6S,8R)-7-(2-fluoro-2-methylpropyl)-6-(2-methoxy-4-(2-(3-methylazetidin-1-yl)ethoxy)phenyl)-8-methyl-6,7,8,9-tetrahydro-3H-pyrazolo[4,3-f]isoquinoline] | 0.24 nM | 67%
12 | CC(C)CN1[C@H](c2c(F)cc(OCCN3CC(CF)C3)cc2F)c2ccc3[nH]nc(F)c3c2C[C@H]1C [Example 44, (6S,8R)-6-(2,6-difluoro-4-(2-(3-(fluoromethyl)azetidin-1-yl)ethoxy)phenyl)-1-fluoro-7-isobutyl-8-methyl-6,7,8,9-tetrahydro-3H-pyrazolo[4,3-f]isoquinoline] | 0.42 nM | –

Compounds with a lower DC50, results first:

Row | DC50 | % downregulation (in brackets) in ER down regulation assay | SMILES
13 | 0.23 nM | – | COc1cc(OCCN2CC(CF)C2)ccc1[C@@H]1c2ccc3[nH]ncc3c2C[C@@H](C)N1CC1(F)COC1 [Example 13, (6S,8R)-6-(4-(2-(3-(fluoromethyl)azetidin-1-yl)ethoxy)-2-methoxyphenyl)-7-((3-fluorooxetan-3-yl)methyl)-8-methyl-6,7,8,9-tetrahydro-3H-pyrazolo[4,3-f]isoquinoline]
14 | 0.17 nM | – | C[C@@H]1Cc2c(ccc3[nH]ncc23)[C@@H](c2ccc(OCCN3CC(CF)C3)cc2C#N)N1CC1(F)CC1 [Example 39, 2-((6S,8R)-7-((1-fluorocyclopropyl)methyl)-8-methyl-6,7,8,9-tetrahydro-3H-pyrazolo[4,3-f]isoquinolin-6-yl)-5-(2-(3-(fluoromethyl)azetidin-1-yl)ethoxy)benzonitrile]
15 | 0.16 nM | – | CC(C)(F)CN1C(c2c(F)cc(OCCN3CC(CF)C3)cc2F)c2ccc3[nH]ncc3c2CC1(C)C (stereo not shown) [Example 37, 6-(2,6-difluoro-4-(2-(3-(fluoromethyl)azetidin-1-yl)ethoxy)phenyl)-7-(2-fluoro-2-methylpropyl)-8,8-dimethyl-6,7,8,9-tetrahydro-3H-pyrazolo[4,3-f]isoquinoline]
16 | 0.15 nM | – | COc1cc(OCCN2CC(CF)C2)ccc1[C@@H]1c2ccc3[nH]ncc3c2C[C@@H](C)N1CC(F)(F)CF [Example 22, (6S,8R)-6-(4-(2-(3-(fluoromethyl)azetidin-1-yl)ethoxy)-2-methoxyphenyl)-8-methyl-7-(2,2,3-trifluoropropyl)-6,7,8,9-tetrahydro-3H-pyrazolo[4,3-f]isoquinoline]
17 | 0.14 nM | – | COc1nc(OCCN2CC(CF)C2)ccc1[C@@H]1c2ccc3[nH]ncc3c2C[C@@H](C)N1CC1(F)CC1 [Example 46, (6S,8R)-7-((1-fluorocyclopropyl)methyl)-6-(6-(2-(3-(fluoromethyl)azetidin-1-yl)ethoxy)-2-methoxypyridin-3-yl)-8-methyl-6,7,8,9-tetrahydro-3H-pyrazolo[4,3-f]isoquinoline]
18 | 0.13 nM | – | COc1cc(OCCN2CC(CF)C2)ccc1[C@@H]1c2ccc3[nH]ncc3c2C[C@@H](C)N1CC(C)(F)CF (single isomer, unassigned) [Example 21]
19 | 0.13 nM | – | COc1cc(OCCN2CC(CF)C2)cc(F)c1[C@@H]1c2ccc3[nH]ncc3c2C[C@@H](C)N1CC(F)(F)CO [Example 26, 2,2-difluoro-3-((6S,8R)-6-(2-fluoro-4-(2-(3-(fluoromethyl)azetidin-1-yl)ethoxy)-6-methoxyphenyl)-8-methyl-8,9-dihydro-3H-pyrazolo[4,3-f]isoquinolin-7(6H)-yl)propan-1-ol]
20 | 0.13 nM | – | COc1cc(OCCN2CC(CF)C2)ccc1[C@@H]1c2ccc3[nH]ncc3c2C[C@@H](C)N1CC(C)(F)CF (single isomer, unassigned) [Example 20]
21 | 0.11 nM | – | COc1cc(OCCN2CC(CF)C2)cc(F)c1[C@@H]1c2ccc3[nH]ncc3c2C[C@@H](C)N1CC(C)(F)F [Example 25, (6S,8R)-7-(2,2-difluoropropyl)-6-(2-fluoro-4-(2-(3-(fluoromethyl)azetidin-1-yl)ethoxy)-6-methoxyphenyl)-8-methyl-6,7,8,9-tetrahydro-3H-pyrazolo[4,3-f]isoquinoline]
22 | 0.091 nM | – | COCC(F)(F)CN1[C@H](c2ccc(OCCN3CC(CF)C3)cc2OC)c2ccc3[nH]ncc3c2C[C@H]1C [Example 15, (6S,8R)-7-(2,2-difluoro-3-methoxypropyl)-6-(4-(2-(3-(fluoromethyl)azetidin-1-yl)ethoxy)-2-methoxyphenyl)-8-methyl-6,7,8,9-tetrahydro-3H-pyrazolo[4,3-f]isoquinoline]
23 | 0.051 nM | – | COc1cc(OCCN2CC(CF)C2)ccc1[C@@H]1c2ccc3[nH]ncc3c2C[C@@H](C)N1CC(F)(F)F [Example 12, (6S,8R)-6-(4-(2-(3-(fluoromethyl)azetidin-1-yl)ethoxy)-2-methoxyphenyl)-8-methyl-7-(2,2,2-trifluoroethyl)-6,7,8,9-tetrahydro-3H-pyrazolo[4,3-f]isoquinoline]
